According to paper PMC7754187 (ACS Chemical Biology, 2020):
Non-standard residues stand in square brackets, D forms with d. Residues, ends and D or L forms follow the SMILES beside them. pS = N[C@@H](COP(=O)(O)O)C(=O)O

System: seven human 14-3-3 isoforms
Experiment: FA of ERRγ phosphopeptides with the seven 14-3-3 isoforms
Type: binding
Details: 14-3-3γ compared with other isoforms; Figure 2b, Figure S1

CC(=O)N[C@@H](CCCCN)C(=O)N[C@@H](CCCNC(=N)N)C(=O)N[C@@H](CCCNC(=N)N)C(=O)N[C@@H](CCCNC(=N)N)C(=O)N[C@@H](CCCCN)C(=O)N[C@@H](COP(=O)(O)O)C(=O)N[C@@H](CS)C(=O)N[C@@H](CCC(N)=O)C(=O)N[C@@H](C)C(N)=O [DBD] (Ac-KRRRK[pS]CQA-NH2)
Relative affinity among 14-3-3 isoforms (in words): highest affinity
